Four compounds from PubChem BioAssay (NCI) can be followed below.

Common to all, as to assay: NCI tumour cell line growth inhibition, 48 h
For assay [1], the system named is HCC-2998 colon.
Assay [2] concerns HCT-116 colon.
The subject of assay [3] is HT29 colon.
Assay [4] has as its system M14 melanoma.
Assay [5] concerns MDA-MB-231 breast.
For assay [6], the system named is MOLT-4 leukemia.
The subject of assay [7] is NCI-H460 lung.
Assay [8] concerns OVCAR-5 ovarian.
Assay [9] deals with SF-268 CNS.
The test system of assay [10] is UACC-62 melanoma.

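Test compounds were applied to cells in 96-well plates for 48 hours at 5 doses. Abbreviation: GI50, concentration required for 50% inhibition of growth. At the TGI there is no net growth.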 Bounds are passed on as bounds.

Regarding `NC1=C(O)C(=O)C(c2c[nH]c3ccc(OCc4ccccc4)cc23)O1` (stereo not given), the TGI was greater than 76.3 µM in assay [1]; greater than 100 µM in assay [2]; greater than 100 µM in assay [3]; greater than 100 µM in assay [4]; greater than 100 µM in [5]; greater than 100 µM in assay [6]. The TGI in [7], in assay [8], in assay [9] and in assay [10] was greater than 100 µM each time.
For `O=C(/C=C/c1ccc(Cl)cc1Cl)c1ccc(Cl)cc1Cl`, the GI50 in [1] is 23.7 µM; in assay [2] it was 5.82 µM; in assay [3], 15.2 µM; in assay [4], 18.7 µM; in assay [5], 4.5 µM; in assay [6], 6.11 µM. The GI50 in assay [7] is 42.1 µM; in assay [8], 21.7 µM; in assay [9], greater than 63.3 µM; in assay [10] it was 1.52 µM. Moreover, the TGI in [1] is greater than 70.5 µM; in assay [2], 17.1 µM; in assay [3] it was greater than 60.1 µM; in [4], 46.3 µM; in [5] it was 27 µM; in assay [6], 14.9 µM. Further, the TGI in [7] was greater than 100 µM; in assay [8], 49.1 µM; in [9] it was greater than 100 µM; in assay [10], 12.1 µM.
Turning to `COc1ccc(/C=C/C(=O)c2ccc(Nc3nc(Nc4ccc(F)cc4)nc(Nc4ccc(F)cc4)n3)cc2)cc1`, the GI50 in assay [1] was 14.1 µM; in assay [2], 4.82 µM; in [3], 18.1 µM; in [4], 12.3 µM; in assay [5], 35.3 µM; in [6], 3.11 µM. Besides, the GI50 in assay [7] is 13 µM; in assay [8], 40.2 µM; in assay [9], 22.5 µM; in assay [10] it was 29.9 µM. In addition, the TGI in [1] was 53.8 µM; in assay [2] it was 18.3 µM; in assay [3] it was greater than 100 µM; in assay [4], 36.7 µM; in [5], greater than 100 µM; in [6], 21.9 µM. The TGI in assay [7] was 72.4 µM; in assay [8], greater than 100 µM; in assay [9], 94.6 µM; in assay [10] it was greater than 100 µM.
For `CNC(=O)c1cc(-c2ccc(F)cc2)cc(-c2ccc(S(=O)(=O)N3CCCC3)cc2)c1N`, the GI50 is greater than 25 µM in assay [1]; 11.6 µM in assay [2]; 15.7 µM in assay [3]; greater than 25 µM in assay [4]; greater than 20.8 µM in assay [5]; 15.5 µM in [6]. The GI50 in [7] was 15.1 µM; in [8], greater than 25 µM; in assay [9] it was greater than 25 µM; in assay [10] it was greater than 23.1 µM. Besides, the TGI in assay [1], in assay [2], in [3], in assay [4], in assay [5] and in assay [6] was greater than 25 µM in each case. The TGI in [7], in assay [8], in [9] and in assay [10] was greater than 25 µM each time.
